Laboratory results from patent publication US20070078085A1, “Methods and compositions for the utilization and targeting of osteomimicry” (priority 2004, published 2007).

Legend:
Format in all cases: cell-based, human
[1] = system: hOC promoter; assay: hOC promoter-luciferase reporter activity in transfected cells; details: C4-2B cells
Excerpt: Plasmid Construction. Genomic DNA was used in the PCR of the 0.8-kb hOC promoter inserting KpnI and XhoI sites, subsequently cloned into pGL3-Basic-luciferase reporter vector (Promega, Madison, Wis.) as described before (9). The deletion constructs, ΔA [374 bp upstream of AP1/VDRE (AV) element], ΔTst-1 (POU-factor Tst-1/Oct-6 binding site), ΔCRE (cAMP-responsive element) and ΔIRF-1 (interferon regulatory factor-i binding site) in hOC promoter/pGL3 were generated by recombinant PCR technique. The point mutation plasmids in CRE (from -643 to -636 in hOC promoter, 5′-[…]-3′) were constructed with a QuikChange Site-Directed Mutagenesis Kit (Stratagene). The mutation constructs (see below) are one-point substitution mutants, Mut1 (-642 G→T), Mut2 (-641 A→C), Mut3 (-640 C→A), Mut4 (-639 C→A) and Mut5 (-638 T→G), a two-point substitution mutant, Mut6 (-640 and -639 CC→AA), and a two-point deletion construct, Mut7 (-640 and -639 CC→XX). The 1.5-kb hBSP promoter construct prepared in the pGL3-luciferase reporter vector has been described previously (36). The single deletion constructs ΔCRE1 (-79 to -72) and ΔCRE2 (-674 to -667), and a double deletion construct ΔCRE2/CRE1 in the hBSP promoter/pGL3-luciferase plasmid were generated by recombinant PCR technique. All plasmid constructs were confirmed by DNA sequencing.
Transfection and Luciferase Activity Assay. Cells were trypsinized and seeded at a density of 1.5×10^5 cells/well (LNCaP, C4-2B, DU145 and ARCaP) and 1.0×10^5 cells/well (PC3 and MG63) in 12-well plates 24 h before transfection. Plasmid DNAs were introduced into cells by complexing with a commercial reagent DOTAP (Roche Molecular Biochemicals) according to the manufacturer's protocol. Each transfection reaction contained 1.25 μg of tested DNA constructs and 0.25 μg of the transfection efficiency control CMV promoter-driven β-galactosidase plasmid DNA. After 6 h transfection, DNA-liposome mixtures were replaced by fresh T-medium or CM. Tansfected cells were harvested and lysed in 1× Reporter Lysis buffer (Promega) after 36 h additional incubation. Cell lysates were vortexed for 15 s and spun for 10 min. For luciferase activity assay, 20 μl of the lysate supernatant was mixed with 100 μl of the luciferase substrate (Promega) and detected by a luminometer (Monolight 3010, luminometer PharMingen, San Diego, Calif.). For β-galactosidase activity assay, 100 μl of the supernatant was mixed with 100 μl of 2×β-galactosidase substrate [200 mM sodium phosphate buffer, pH 7.3, 2 mM MgCl2, 100 mM β-mercaptoethanol and 1.33 mg/ml o-nitrophenyl-β-D-galactopyranoside (ONPG)], and incubated at 37° C. for 30 min. β-galactosidase activity was detected by Microplate spectrophotometer (Molecular Devices Corp., Sunnyvale, Calif.) at 405 nm wavelength. Data were presented as normalized luciferase activity (means±standard deviations), defined as luciferase activity normalized to internal control β-galactosidase activity for transfection efficiency. All studies were performed in three independent experiments with duplicate assays.

[2] = system: hBSP promoter; assay: hBSP promoter-luciferase reporter activity in transfected cells; details: C4-2B cells; H-89 10^−8 to 10^−6 M for 2 h, then FSK 10^−6 M 16 h; concentration-dependent
Excerpt: Plasmid Construction. Genomic DNA was used in the PCR of the 0.8-kb hOC promoter inserting KpnI and XhoI sites, subsequently cloned into pGL3-Basic-luciferase reporter vector (Promega, Madison, Wis.) as described before (9). The deletion constructs, ΔA [374 bp upstream of AP1/VDRE (AV) element], ΔTst-1 (POU-factor Tst-1/Oct-6 binding site), ΔCRE (cAMP-responsive element) and ΔIRF-1 (interferon regulatory factor-i binding site) in hOC promoter/pGL3 were generated by recombinant PCR technique. The point mutation plasmids in CRE (from -643 to -636 in hOC promoter, 5′-[…]-3′) were constructed with a QuikChange Site-Directed Mutagenesis Kit (Stratagene). […]
Transfection and Luciferase Activity Assay. […] For luciferase activity assay, 20 μl of the lysate supernatant was mixed with 100 μl of the luciferase substrate (Promega) and detected by a luminometer (Monolight 3010, luminometer PharMingen, San Diego, Calif.). For β-galactosidase activity assay, 100 μl of the supernatant was mixed with 100 μl of 2×β-galactosidase substrate [200 mM sodium phosphate buffer, pH 7.3, 2 mM MgCl2, 100 mM β-mercaptoethanol and 1.33 mg/ml o-nitrophenyl-β-D-galactopyranoside (ONPG)], and incubated at 37° C. for 30 min. β-galactosidase activity was detected by Microplate spectrophotometer (Molecular Devices Corp., Sunnyvale, Calif.) at 405 nm wavelength. […]

[3] = system: OC mRNA; assay: Semi-quantitative RT-PCR of endogenous OC mRNA; details: LNCaP and C4-2B cells (data not shown)
Procedure: (§1) Reverse Transcription-Polymerase Chain Reaction (RT-PCR) Analysis. Total RNA was isolated from confluent monolayers of cells using RNAZol B (Teltest Inc., Friendswood, Tex.). Five μg of total RNA was used as template and 0.15 μg of random hexanucleotide primers were added for reverse transcription and amplification in a reaction volume of 20 μl, according to the manufacturer's instruction (Invitrogen, Carlsbad, Calif.). After RT reaction, 3-5 μl of the 1st-strand cDNA was used for PCR with a PTC-100 programmable Thermal Controller (MJ Research Inc.). The oligonucleotide primer sets used for PCR analysis of cDNA are: hOC, 5′-[…]-3′ (forward) and 5′-[…]-3′ (reverse); hBSP, 5′-[…]-3′ (forward) and 5′-[…]-3′ (reverse); and glyceraldehyde phosphate dehydrogenase (GAPDH), 5′-[…]-3′ (forward) and 5′-[…]-3′ (reverse), respectively. The thermal profile for hOC amplification is 30 cycles starting with denaturation 1 min at 94° C., followed by 1 min of annealing at 55° C. and 1 min of extension at 72° C. For hBSP amplification the thermal profile is 35 cycles starting with denaturation 1 min at 94° C., followed by 30 s of annealing at 48° C. and 40 s of extension at 72° C. The program for GAPDH amplification is 25 cycles starting with denaturation 30 s at 94° C., followed by 30 s of annealing at 60° C. and 1 min of extension at 72° C. The RT-PCR products were analyzed by 1.2% agarose gel electrophoresis. Quantity one-4.1.1 Gel Doc gel documentation software (Bio-Rad) or NIH image were used for quantification of hOC and hBSP mRNA expression normalized by GAPDH mRNA expression.

[4] = system: BSP mRNA; assay: Semi-quantitative RT-PCR of endogenous BSP mRNA; details: LNCaP and C4-2B cells (data not shown)
Procedure: as §1

O=S(=O)(NCCNCC=Cc1ccc(Br)cc1)c1cccc2cnccc12 [H-89, N-[2-(p-bromocinnamylamino)ethyl]-5-isoquinolinesulfonamide]
ARCaP CM-mediated activation of hOC promoter activity ([1]; H-89 10^−6 M 2 h, then ARCaP CM 15 μg/ml 16 h): inhibited
PMA-induced hOC promoter activation ([1]; H-89 10^−6 M 2 h, then PMA 10^−6 M 16 h): not blocked
db cAMP-mediated activation of hOC promoter activity ([1]; H-89 10^−6 M 2 h, then db cAMP 10^−3 M 16 h): inhibited
CM-induced hOC promoter activity ([1]; H-89 10^−6 M, CM harvested from C4-2B, DU145, PC3 and MG63 cell lines): nearly abolished
FSK-stimulated hOC promoter activity ([1]; H-89 10^−8 to 10^−6 M for 2 h, then FSK 10^−6 M 16 h, concentration-dependent): inhibited
FSK-stimulated hBSP promoter activity [2]: inhibited
induction of endogenous OC mRNA expression by ARCaP CM or FSK [3]: inhibited
induction of endogenous BSP mRNA expression by ARCaP CM or FSK [4]: inhibited
